For experiment [1], the target named is T1, SIRT3 (Homo sapiens, UniProt Q9NTG7).
T1 construct: amino acid residues 102-399 of human SIRT3 with an N-terminal His-tag; His-tag (N); made in house; host or cells: E. coli
T1 sequence (Q9NTG7 102-399): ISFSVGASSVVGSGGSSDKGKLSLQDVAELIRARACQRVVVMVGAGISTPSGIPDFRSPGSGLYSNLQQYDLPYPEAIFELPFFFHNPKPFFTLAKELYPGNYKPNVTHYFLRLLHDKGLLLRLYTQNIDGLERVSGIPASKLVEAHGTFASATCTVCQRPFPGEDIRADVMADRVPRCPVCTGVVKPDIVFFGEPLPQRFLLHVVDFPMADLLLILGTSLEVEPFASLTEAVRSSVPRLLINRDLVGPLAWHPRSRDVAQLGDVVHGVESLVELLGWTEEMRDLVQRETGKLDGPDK
Description: Fluorescence polarization assay, SIRT3 deacetylation of Histone H4-based peptide substrate. It counts as biochemical. An excerpt: A fluorescence polarization assay was used to identify modulators of SIRT3 activity. The same assay may be used to identify modulators of any sirtuin protein. The assay utilizes a peptide substrate based on a fragment of Histone H4, a known sirtuin deacetylation target. […] The peptide is labeled with the fluorophore MR121 (excitation 635 nm/emission 680 nm) at the C-terminus and biotin at the N-terminus.
The peptide substrate is exposed to a sirtuin protein in the presence of NAD^+ to allow deacetylation of the substrate and render it sensitive to cleavage by trypsin. Trypsin is then added and the reaction is carried to completion (i.e., the deacetylated substrate is cleaved) releasing the MR121 fragment. Streptavidin is then added to the reaction where it can bind both the uncleaved substrate (i.e., any remaining acetylated substrate) and the non-fluorescent portion of the cleaved peptide substrate (i.e., the biotin containing fragment). The fluorescence polarization signal observed for the full length peptide substrate bound to streptavidin is higher than the fluorescence polarization signal observed for the released MR121 C-terminal fragment. Therefore, the fluorescence polarization obtained is inversely proportional to the level of deacetylation (e.g., the signal is inversely proportional to the activity of the sirtuin protein). Results are read on a microplate fluorescence polarization reader (Molecular Devices Spectramax MD) with appropriate excitation and emission filters.
The fluorescence polarization assays may be conducted as follows: 0.5 μM peptide substrate and 50 μM βNAD^+ is incubated with 2 nM of SIRT3 for 60 minutes at 37° C. in a reaction buffer (25 mM Tris-acetate pH8, 137 mM Na—Ac, 2.7 mM K—Ac, 1 mM Mg—Ac, 0.1% Pluronic F127, 10 mM CaCl2, 1 mM TCEP, 0.025% BSA). Test compounds are solubilized in DMSO and are added to the reaction at 11 concentrations ranging from 0.7 μM to 100 μM. The SIRT3 protein used in the assays corresponded to amino acid residues 102-399 of human SIRT3 with an N-terminal His-tag. The protein was overexpressed in E. coli and purified on a nickel chelate column using standard techniques. After the 60 minute incubation with SIRT3, nicotinamide is added to the reaction to a final concentration of 3 mM to stop the deacetylation reaction and 0.5 μg/mL of trypsin is added to cleave the deacetylated substrate. The reaction is incubated for 30 minutes at 37° C. in the presence of 1 mM streptavidin. Fluorescent polarization is determined at excitation (650 nm) and emissions (680 nm) wavelengths. The level of activity of the sirtuin protein in the presence of the various concentrations of test compound are then determined and may be compared to the level of activity of the sirtuin protein in the absence of the test compound, and/or the level of activity of the sirtuin proteins in the negative control (e.g., level of inhibition) and positive control (e.g., level of activation) described below.
A control for activation of sirtuin activity is conducted using 0.5 μg/mL of sirtuin protein to reach baseline deacetylation of the substrate (e.g., to determine normalized sirtuin activity).
In general terms: In fluorescence polarisation assays a small probe gives low polarisation when free and higher when bound to something large.

Experiment [2] has as its target T2, SIRT1 (Homo sapiens, UniProt Q96EB6).
T2 sequence (Q96EB6 1-747): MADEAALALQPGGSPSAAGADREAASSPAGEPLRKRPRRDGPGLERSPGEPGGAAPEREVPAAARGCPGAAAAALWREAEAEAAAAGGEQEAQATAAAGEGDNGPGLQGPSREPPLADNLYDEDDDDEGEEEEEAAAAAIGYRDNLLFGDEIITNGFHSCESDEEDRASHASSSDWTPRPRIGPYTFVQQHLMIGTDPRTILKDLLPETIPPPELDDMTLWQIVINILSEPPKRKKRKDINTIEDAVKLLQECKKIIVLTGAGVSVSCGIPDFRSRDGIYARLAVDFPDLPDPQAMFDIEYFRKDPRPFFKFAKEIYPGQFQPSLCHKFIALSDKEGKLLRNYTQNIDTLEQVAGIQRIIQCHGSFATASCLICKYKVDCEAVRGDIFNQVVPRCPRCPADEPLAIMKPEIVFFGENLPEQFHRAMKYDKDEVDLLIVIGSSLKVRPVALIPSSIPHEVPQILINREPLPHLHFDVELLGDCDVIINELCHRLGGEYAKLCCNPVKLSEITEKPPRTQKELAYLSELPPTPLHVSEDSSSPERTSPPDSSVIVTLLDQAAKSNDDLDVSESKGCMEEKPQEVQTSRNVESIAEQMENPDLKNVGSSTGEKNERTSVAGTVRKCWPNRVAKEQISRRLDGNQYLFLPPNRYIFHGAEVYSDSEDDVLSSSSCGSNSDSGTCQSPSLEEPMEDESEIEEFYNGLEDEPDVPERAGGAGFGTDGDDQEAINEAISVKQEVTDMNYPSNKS
As to the kind of experiment: Fluorescence polarization assay, SIRT1 deacetylation of p53-based peptide substrate. It counts as biochemical. To be noted: for EC50: activation of SIRT1, compounds 1-18 with peptide 1 (MR121), compounds 19-56 with peptide 2 (5TMR), read-out: ED50 (the source's name); for IC50: inhibition of SIRT1.

Experiment [3] deals with T2, SIRT1. As to conditions: Sirt1, nicotinamide release, cited from earlier work.
In experiment [4] the target is T3, Sirt3 (Homo sapiens, UniProt Q9NTG7).
T3 sequence (Q9NTG7 1-399): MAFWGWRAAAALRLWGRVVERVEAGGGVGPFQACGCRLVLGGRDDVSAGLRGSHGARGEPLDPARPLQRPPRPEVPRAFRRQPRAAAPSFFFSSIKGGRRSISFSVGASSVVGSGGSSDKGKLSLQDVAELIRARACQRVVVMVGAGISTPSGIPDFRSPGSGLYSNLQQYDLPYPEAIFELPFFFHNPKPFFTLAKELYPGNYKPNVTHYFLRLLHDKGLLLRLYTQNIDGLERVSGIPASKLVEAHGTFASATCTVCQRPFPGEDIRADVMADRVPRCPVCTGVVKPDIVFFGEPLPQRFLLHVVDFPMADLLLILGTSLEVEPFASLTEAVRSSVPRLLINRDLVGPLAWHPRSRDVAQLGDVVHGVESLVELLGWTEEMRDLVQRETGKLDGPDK
To be noted: Sirt3, Biomol Fluor de Lys product literature, cited from earlier work.

In the next experiment the target is T4, Sirt2 (Homo sapiens, UniProt Q8IXJ6).
T4 sequence (Q8IXJ6 1-389): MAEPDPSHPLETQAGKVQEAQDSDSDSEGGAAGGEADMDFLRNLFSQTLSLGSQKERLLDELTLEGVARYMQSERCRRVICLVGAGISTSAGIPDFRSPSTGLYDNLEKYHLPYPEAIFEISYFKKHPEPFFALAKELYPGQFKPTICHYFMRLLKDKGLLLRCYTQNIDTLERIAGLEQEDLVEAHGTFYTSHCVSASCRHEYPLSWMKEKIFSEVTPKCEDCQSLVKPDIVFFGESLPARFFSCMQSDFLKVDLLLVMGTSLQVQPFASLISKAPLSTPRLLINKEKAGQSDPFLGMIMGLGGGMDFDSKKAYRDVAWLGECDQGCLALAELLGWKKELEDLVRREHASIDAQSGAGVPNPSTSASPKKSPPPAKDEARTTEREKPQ
As to conditions: Sirt2, Biomol Fluor de Lys product literature, cited from earlier work.

Experiment [5] concerns the target T2, SIRT1. As to conditions: Sirt1, Biomol Fluor de Lys product literature, cited from earlier work.
Setting [6] is: read-out: ED50 (the source's name).
The mark [7] stands for this setting: Km of NAD with the named peptide substrate, read-out: NAD Km.
[8] abbreviates: Km of NAD with the named peptide substrate, Kaeberlein et al., read-out: NAD Km.
[9] abbreviates: Kaeberlein et al., read-out: Peptide Km.

Like-named read-outs stand apart in the source and are kept apart here. No end group written: not given here.

The text below walks through data of patent US20080293081A1, “Fluorescence Polarization Assays for Acetyltransferase/Deacetylase Activity” (Sirtris Pharmaceuticals, Inc., priority 2005, published 2008).

For `O=C(NCc1ccncc1)c1cc(-c2ccsc2)nc2ccccc12` [Compound 1], the EC50 on SIRT3 [1] (setting [6]) fell in the range of 51 to 100 µM.

As to `O=C(NNc1c2ccccc2nc2ccccc12)c1ccccn1` [Compound 2], on SIRT1 [2], the EC50 is 51 to 100 µM.

Turning to `O=C(NCCN1CCOCC1)c1cc(-c2cccs2)nc2ccccc12` [Compound 5], the EC50 on SIRT1 [2] lay within 101 to 150 µM.

Turning to `O=C(NCCN1CCOCC1)c1cc(-c2cccs2)nc2ccc(F)cc12` [Compound 7], the EC50 on SIRT1 [2] was in the range of 101 to 150 µM.

With `O=C(NNc1c2ccccc2nc2ccccc12)c1cccnc1` [Compound 11], on SIRT3 [1] (setting [6]), the EC50 fell in the range of 51 to 100 µM.

Take `Cc1ccc2nc(-c3ccccc3)cc(C(=O)NCCN3CCOCC3)c2c1` [Compound 12]: the EC50 at SIRT1 [2] is 51 to 100 µM.

Regarding `FC(F)(F)c1ccnc(NNc2c3ccccc3nc3ccccc23)n1` [Compound 33], the EC50 at SIRT1 [2] lay in the range of 101 to 150 µM.

Molecule `Cc1ccc2nc(-c3ccco3)cc(C(=O)NCCCCN3CCOCC3)c2c1` [Compound 72] returned an IC50 against SIRT1 [2] of over 150 µM.

Take `O=C(NNc1c2c(nc3ccccc13)CCCC2)c1ccccn1` [Compound 73]: on SIRT1 [2], the IC50 was under 50 µM.

`Cc1cc(C)nc(Nc2c3ccccc3nc3ccccc23)c1` [Compound 74] returned an IC50 at SIRT1 [2] of over 150 µM.

`COc1cc(C(=O)NNC(=O)c2c3ccccc3nc3ccccc23)cc(OC)c1OC` [Compound 75] came in with an IC50 on SIRT1 [2] of under 50 µM.

The molecule `Cc1nc(-c2cccc(NC(=O)c3c4ccccc4nc4ccccc34)c2)cs1` [Compound 76] gave an IC50 against SIRT1 [2] of over 150 µM.

Molecule `COc1ccccc1NC(=O)Nc1c2c(nc3ccccc13)CCCC2` [Compound 77] yielded an IC50 at SIRT1 [2] of over 150 µM.

`COc1cc(NC(=O)Nc2c3c(nc4ccccc24)CCCC3)cc(OC)c1OC` [Compound 78]: on SIRT1 [2], the IC50 lay within 101 to 150 µM.

On SIRT1 [2], `O=C(Nc1ccccc1)c1c2c(nc3ccccc13)-c1ccccc1CC2` [Compound 79] gave an IC50 of over 150 µM.

Turning to `O=C(O)c1c(O)c(-c2ccccc2)nc2ccccc12` [Compound 80], at SIRT3 [1] (setting [6]), the EC50 fell in the range of 51 to 100 µM.

In turn, `CC(=O)Nc1ccc(Nc2cc(C)nc3c(C)cccc23)cc1` [Compound 81] gave an IC50 on SIRT3 [1] of 101 to 150 µM.

Regarding `Oc1ccc(C=Cc2cc(O)cc(O)c2)cc1` [resveratrol, reference compound], the EC50 on SIRT3 [1] (activation of SIRT3, read-out: ED50 for activation of SIRT3) is over 300 µM.

“p53 19 mer (aa 368-386) no FL: p53 19 mer (aa 368-386) peptide substrate without fluorescent label, McDonagh et al. (HLKSKKGQSTSRHKKLMFK; UniProt P04637 368-386, looked up, fragment)”: the Km was 133 µM with SIRT1 [3] (Km of NAD with the named peptide substrate, McDonagh et al., read-out: NAD Km) and 10.3 µM with SIRT1 [3] (McDonagh et al., read-out: Peptide Km).

For the molecule “p53 (aa 317-320) *FL: p53 (aa 317-320) peptide substrate with fluorescent label, Biomol Fluor de Lys SIRT2 and SIRT3 kits (QPKK; also: fluorescent label; UniProt P04637 317-320, looked up, fragment)”, the Km with Sirt3 [4] (setting [7]) is 2030 µM; with Sirt3 [4] (read-out: Peptide Km), 32 µM; with Sirt2 (setting [7]), 547 µM; with Sirt2 (read-out: Peptide Km) it was 186 µM.

Take “p53 (aa 368-386) *FL: p53 (aa 368-386) peptide substrate with fluorescent label, Kaeberlein et al. (HLKSKKGQSTSRHKKLMFK; also: fluorescent label; UniProt P04637 368-386, looked up, fragment)”: the Km is 192 µM with SIRT1 [3] (setting [8]) and 87.6 µM with SIRT1 [3] (setting [9]).

Take “p53 (aa 368-386) no FL: p53 (aa 368-386) peptide substrate without fluorescent label, Kaeberlein et al. (HLKSKKGQSTSRHKKLMFK; UniProt P04637 368-386, looked up, fragment)”: the Km is 132 µM with SIRT1 [3] (setting [8]) and 10.3 µM with SIRT1 [3] (setting [9]).

Consider “p53 (aa 379-382) *FL: p53 (aa 379-382) peptide substrate with fluorescent label, Biomol Fluor de Lys SIRT1 kit (RHKK; also: fluorescent label; UniProt P04637 379-382, looked up, fragment)”, for which the Km is 558 µM with SIRT1 [5] (setting [7]) and 64 µM with SIRT1 [5] (read-out: Peptide Km).

One may read the IC50 as the concentration at which inhibition is half-maximal. Lower therefore signals greater potency in that assay. The term Km denotes the substrate concentration at which the rate is half of its maximum.
